Laboratory results published in the NIST ThermoML archive (doi:10.1021/je5008795).

Assays:
[1] = for vapor or sublimation pressure: Transpiration method
[2] = xn = mol fraction of the nth substance listed; conditions: 298.15 K, 101 kPa, Liquid, Vibrating tube method
[3] = refractive index (Na D-line) (dimensionless); xn = mol fraction of the nth substance listed; conditions: 298.15 K, 101 kPa, Liquid, Standard Abbe refractometry
[4] = Molar enthalpy of transition or fusion; conditions: Crystal; DSC

Brc1ccccc1Br [1,2-dibromobenzene]
[1], Liquid
Conditions	vapor or sublimation pressure [kPa]
290.3 K	0.01251
292.4 K	0.01408
292.5 K	0.01451
295.8 K	0.01802
298.2 K	0.02158
301.2 K	0.02661
304.2 K	0.03482
307.3 K	0.04115
310.2 K	0.05236
313.2 K	0.06399
316.3 K	0.07736
319.3 K	0.09284
320.6 K	0.09686
322.1 K	0.1075
325.2 K	0.1324
325.3 K	0.135
328.2 K	0.1579

Brc1ccccc1Br [1,2-dibromobenzene] + c1ccccc1
Conditions	mass density, x1 = 0.00278 [kg/m3]	mass density, x1 = 0.00365 [kg/m3]	mass density, x1 = 0.00738 [kg/m3]	mass density, x1 = 0.01251 [kg/m3]	refractive index, x1 = 0.00278	refractive index, x1 = 0.00365	refractive index, x1 = 0.00738	refractive index, x1 = 0.01251
[2]	877.563	878.834	884.292	891.807	–	–	–	–
[3]	–	–	–	–	1.49816	1.49829	1.49882	1.49961

Brc1cccc(Br)c1 [1,3-dibromobenzene]
[1], Liquid
Conditions	vapor or sublimation pressure [kPa]
276.4 K	0.00508
278.7 K	0.00646
281.1 K	0.00785
282.3 K	0.0086
284.7 K	0.01072
286.9 K	0.01274
288.8 K	0.01468
289.2 K	0.0154
292.3 K	0.01899
292.8 K	0.01997
295 K	0.02324
296.2 K	0.02592
298.8 K	0.03143
301 K	0.03698
301.1 K	0.03822
304.2 K	0.04771
304.9 K	0.0474
307.2 K	0.05893
308.9 K	0.06635
310 K	0.07138
312.9 K	0.08294
313.3 K	0.08608
315.2 K	0.1012
317.8 K	0.1178

Brc1ccc(Br)cc1 [1,4-dibromobenzene]
[1], Crystal
Conditions	vapor or sublimation pressure [kPa]
296.5 K	0.00693
299.5 K	0.00922
302.4 K	0.01272
303.5 K	0.01383
305.4 K	0.01701
308.4 K	0.02188
309.4 K	0.02467
311.4 K	0.02936
314.4 K	0.03757
317.4 K	0.04642
319.4 K	0.05898
320.4 K	0.06313
323.4 K	0.08309
329.6 K	0.143

Brc1ccc(Br)cc1 [1,4-dibromobenzene] + c1ccccc1
Conditions	mass density, x1 = 0.0018 [kg/m3]	mass density, x1 = 0.00185 [kg/m3]	mass density, x1 = 0.0025 [kg/m3]	mass density, x1 = 0.0033 [kg/m3]	refractive index, x1 = 0.0018	refractive index, x1 = 0.00185	refractive index, x1 = 0.0025	refractive index, x1 = 0.0033
[2]	876.211	876.342	877.295	878.419	–	–	–	–
[3]	–	–	–	–	1.49781	1.49784	1.49795	1.49808

Brc1ccc(Br)c2ccccc12 [1,4-dibromonaphthalene]
Conditions	Normal melting temperature [°C]
[1], Crystal, DTA	80.0

Conditions	Molar enthalpy of transition or fusion [kJ/mol]
[4]	21.1

Brc1ccc(Br)c2ccccc12 [1,4-dibromonaphthalene] + c1ccccc1
Conditions	mass density, x1 = 0.00087 [kg/m3]	mass density, x1 = 0.00189 [kg/m3]	mass density, x1 = 0.00208 [kg/m3]	mass density, x1 = 0.00321 [kg/m3]	refractive index, x1 = 0.00087	refractive index, x1 = 0.00189	refractive index, x1 = 0.00208	refractive index, x1 = 0.00321
[2]	875.112	876.792	877.158	879.019	–	–	–	–
[3]	–	–	–	–	1.49786	1.4982	1.49828	1.49872
